This passage reports IC50, ED50 and SDL results from ChEMBL document CHEMBL1125697, “Synthesis and pharmacological examination of 1-(3-methoxy-4-methylphenyl)-2-aminopropane and 5-methoxy-6-methyl-2-aminoindan: similarities to 3,4-(methylenedioxy)methamphetamine (MDMA)” (J Med Chem, 1991).

Common to all, as to assay type: functional
Assay [1] is filed under the species Rattus norvegicus. Briefly: Compound was evaluated for the uptake inhibition of [3H]-5-HT in rats.
The subject of assay [2] is Rattus norvegicus. Briefly: Effective dose was evaluated for drug discrimination in I-trained rats, when given at a dose of 1.16 micro mol/kg.
The subject of assay [3] is Rattus norvegicus. Briefly: Effective dose was evaluated for drug discrimination in I-trained rats, when given at a dose of 0.25 mg/kg. The conditions noted are these: Rattus norvegicus; read-out: ED50.
Assay [4] concerns Rattus norvegicus. Briefly: Percentage of non disrupted rats that selected the drug lever, when given at a dose of 0.25 mg/kg.
Assay [5] deals with Rattus norvegicus. Briefly: Percentage of non disrupted rats that selected the drug lever, when given at a dose of 0.5 mg/kg.
Assay [6] relates to Rattus norvegicus. Briefly: Percentage of non disrupted rats that selected the drug lever, when given at a dose of 0.75 mg/kg.
Assay [7] is filed under the species Rattus norvegicus. Briefly: Effective dose was evaluated for drug discrimination in I-trained rats.

Values joined by “and” are separate entries in the source; they are usually repeats but may differ in a detail not shown here. Identical values can stand only once.

By IC50 is commonly meant the midpoint of a concentration-inhibition curve. For orientation: ED50 means the dose at which the effect has come halfway, by size or by number of responders.

Take `COc1cc(C[C@H](C)N)ccc1C`: in assay [1], the concentration for half-maximal inhibition (IC50) was 99 nM. Further, the ED50 was found to be 2.14 µmol/kg in assay [2] and 0.46 mg/kg in assay [3]. Besides, the SDL was determined as 17% in assay [4], 33% in assay [5] and 100% in assay [6].

For `CNC(C)Cc1ccc2c(c1)OCO2` (centres undefined) [MIDOMAFETAMINE], in assay [7], the ED50 is 0.64 mg/kg and 2.79 µmol/kg.

`C[C@H](N)Cc1ccccc1` [DEXTROAMPHETAMINE]: in assay [7], the ED50 is 0.31 mg/kg and 1.69 µmol/kg.

As to `CCN(CC)C(=O)[C@@H]1C=C2c3cccc4[nH]cc(c34)C[C@H]2N(C)C1` [LYSERGIDE], the ED50 in assay [7] is 0.025 mg/kg and 0.058 µmol/kg.
